Measurements taken from PubChem BioAssay (NCI).
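Assay format: 96-well plates, 48-hour exposure. The concentration for 50% growth inhibition is given as GI50. TGI is the concentration that stops growth completely.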

Experiments:
Experiment in all cases: growth of human tumour cells (NCI), 48 h
NCI/ADR-RES ovarian = tested on: NCI/ADR-RES ovarian
OVCAR-3 ovarian = tested on: OVCAR-3 ovarian
ACHN renal = tested on: ACHN renal
RPMI-8226 leukemia = tested on: RPMI-8226 leukemia
MDA-MB-435 = tested on: MDA-MB-435
MOLT-4 leukemia = tested on: MOLT-4 leukemia
OVCAR-8 ovarian = tested on: OVCAR-8 ovarian
A549 NSCLC = tested on: A549 NSCLC
SK-OV-3 ovarian = tested on: SK-OV-3 ovarian
T-47D breast = tested on: T-47D breast
SW-620 colon = tested on: SW-620 colon
MALME-3M melanoma = tested on: MALME-3M melanoma
RXF 393 renal = tested on: RXF 393 renal
MDA-MB-231 breast = tested on: MDA-MB-231 breast
DU-145 prostate = tested on: DU-145 prostate
UO-31 renal = tested on: UO-31 renal
HT29 colon = tested on: HT29 colon
IGROV1 ovarian = tested on: IGROV1 ovarian
NCI-H460 lung = tested on: NCI-H460 lung
EKVX NSCLC = tested on: EKVX NSCLC
OVCAR-5 ovarian = tested on: OVCAR-5 ovarian
SNB-75 CNS = tested on: SNB-75 CNS
UACC-257 melanoma = tested on: UACC-257 melanoma
BT-549 breast = tested on: BT-549 breast
PC-3 prostate = tested on: PC-3 prostate
MCF7 breast = tested on: MCF7 breast
HCT-15 colon = tested on: HCT-15 colon
SF-295 CNS = tested on: SF-295 CNS
CCRF-CEM leukemia = tested on: CCRF-CEM leukemia

COCC(=O)NC/C=C/c1ccc2ncnc(Nc3ccc(Oc4ccc(C)nc4)c(C)c3)c2c1
GI50 (NCI/ADR-RES ovarian): 17.2 µM
TGI (NCI/ADR-RES ovarian): 88.8 µM
GI50 (OVCAR-3 ovarian): 10.4 µM
TGI (OVCAR-3 ovarian): 28 µM
GI50 (ACHN renal): 3.98 µM
TGI (ACHN renal): 69.3 µM
GI50 (RPMI-8226 leukemia): 8.75 µM
TGI (RPMI-8226 leukemia): 36.1 µM
GI50 (MDA-MB-435): 11.4 µM
TGI (MDA-MB-435): 29.9 µM
GI50 (MOLT-4 leukemia): 13.8 µM
TGI (MOLT-4 leukemia): 53.8 µM
GI50 (OVCAR-8 ovarian): 15.9 µM
TGI (OVCAR-8 ovarian): 92.4 µM
GI50 (A549 NSCLC): 13.8 µM
TGI (A549 NSCLC): > 100 µM
GI50 (SK-OV-3 ovarian): 0.295 µM
TGI (SK-OV-3 ovarian): 4.52 µM
GI50 (T-47D breast): 1.19 µM
TGI (T-47D breast): 13.6 µM
GI50 (SW-620 colon): 17.4 µM
TGI (SW-620 colon): 40.9 µM
GI50 (MALME-3M melanoma): 14.4 µM
TGI (MALME-3M melanoma): 35.4 µM
GI50 (RXF 393 renal): 13.9 µM
TGI (RXF 393 renal): 36.3 µM
GI50 (MDA-MB-231 breast): 12.7 µM
TGI (MDA-MB-231 breast): 36.1 µM
GI50 (DU-145 prostate): 9.54 µM
TGI (DU-145 prostate): > 100 µM
GI50 (UO-31 renal): 7.8 µM
TGI (UO-31 renal): 35.9 µM
GI50 (HT29 colon): 15.5 µM
TGI (HT29 colon): 39.4 µM
GI50 (IGROV1 ovarian): 15.9 µM
TGI (IGROV1 ovarian): > 89.2 µM
GI50 (NCI-H460 lung): 4.74 µM
TGI (NCI-H460 lung): 22.3 µM
GI50 (EKVX NSCLC): 4.16 µM
TGI (EKVX NSCLC): 48.7 µM
GI50 (OVCAR-5 ovarian): 12.7 µM
TGI (OVCAR-5 ovarian): 35.9 µM
GI50 (SNB-75 CNS): 12.5 µM
TGI (SNB-75 CNS): 27.2 µM
GI50 (UACC-257 melanoma): 14.9 µM
TGI (UACC-257 melanoma): 36.1 µM
GI50 (BT-549 breast): 6.81 µM
TGI (BT-549 breast): 24.9 µM
GI50 (PC-3 prostate): 15.5 µM
TGI (PC-3 prostate): > 83.1 µM
GI50 (MCF7 breast): 4.11 µM
TGI (MCF7 breast): 32.5 µM
GI50 (HCT-15 colon): 9.36 µM
TGI (HCT-15 colon): 74.2 µM
GI50 (SF-295 CNS): 12.5 µM
TGI (SF-295 CNS): 38.1 µM
GI50 (CCRF-CEM leukemia): 14 µM
TGI (CCRF-CEM leukemia): > 79.9 µM
